Measurements: article PMC11189555, “Aryl amino acetamides prevent Plasmodium falciparum ring development via targeting the lipid-transfer protein PfSTART1” (Nature Communications, 2024)
Values joined by “and” are separate entries in the source; they are usually repeats but may differ in a detail not shown here. Equal entries are not always repeated. “Also recorded” adds a separate entry of the source. Where two headings read alike, the source gives them in different places.

Legend:
P. falciparum merozoites = tested on: P. falciparum merozoites; design: method as in earlier work; details: live cell imaging; ref 11 (Dans et al 2020); cited from earlier work
SLI-WT parasites = experiment: Growth inhibition assay (72 h, LDH activity); type: cell-based, Plasmodium falciparum; details: for Growth inhibition, (1 - av / DMSO) x 100: Fig 2B source data, per biological replicate; for sample/DMSO: START(WT); for EC50: Plasmodium falciparum; for percent growth inhibition relative to DMSO control: START(WT) (SLI-WT)
Procedure: Parasite growth assays with inhibitory compounds were performed as per[11] and are fully described in the Supplementary Information.
Molecular biology and transfection of P. falciparum: Selection Linked Integration […]
To introduce the PfSTART1 mutations, the second half of the coding sequence of pfstart1 (PF3D7_0104200), was recodonised without introns to the bias of Saccharomyces cerevisiae containing either WT, N309K or N330K mutations, and synthesised as gBlock fragments (Integrated DNA Technologies). The first 819 bp of the 5′ native sequence of pfstart1 was amplified from gDNA, to form the 5’ homology block (5’ HB). The 3′ recodonised gBlock fragment comprising of the last 552 bp of either the WT, N309K or N330K pfstart1 to form the ‘recodon’ block (primers listed in Table S2). The 5’ HB and recodon products were sewn together by overlapping PCR to reconstitute the full coding sequence of pfstart1. These blocks (WT/N309K/N330K) were digested with BglII/PstI, and inserted into the parasite vector p-HA-2A-Neo-glmS
1. This plasmid contains an in -frame haemagglutinin (HA) epitope for protein identification and a P2A peptide (2A) to skip continuous peptide bond synthesis of a downstream neomycin resistance gene ( NeoR).
Parasites containing the transfected DNA were selected using 2.5 nM WR99210 (Jacobus). To select for parasites in which single crossover integration had occurred into the pfstart1 locus, parasites were treated with 400 μg/mL G418 (geniticin, Sigma Aldrich) for 14 days: only parasites that have integrated the construct into their genome expressed the neomycin resistance gene together with the PfSTART1 protein.
Parasite lines were cloned using limiting dilution. These clones were then tested on Western Blot (for correct HA-tagging and protein size), and correct integration and sequence were tested by PCR analysis: PCR on the gDNA was conducted using the primers START_5’UTR.F and START_Seq.R (Table S2). […]
Growth inhibition assays. Synchronised ring-stage parasites (0.3-0.6% parasitemia, 2% haematocrit) were grown for 72 h in a serial-dilution of the compound under […]
and compound 4. Note that M-833 was first purchased from MolPort (MolPort -002-267-916) then made in-house at WEHI: the differences observed in EC50s across experiments are attributed to the different batches of M -833. For some experiments, 0, 0.25 or 2.5 mM of glucosamine (GlcN) was also added. Experiments were set up in technical duplicates or triplicates. Following a freeze -thaw cycle, lactate dehydrogenase (LDH) activity was assessed as an indicator of parasite growt h 5. 30 μL of parasite culture was incubated for 30 min in the dark with 75 μL Malstat mixture (0.1 M Tris pH 9.0, 20 g/L lactic acid, pH 7.5, 0.2% Triton-X100, 0.5 g/L acetylpyridine adenine dinucleotide (APAD, Sigma), 200 μg/mL nitroblue tetrazolium (NBT; Sigma), 1 μg/mL phenozine ethosulfate (PES; Sigma)). Absorbance was then measured at 650 nm, transformed using the formula below, plotted against the logarithm of the concentrations, and a non-linear regression (log(inhibitor) vs. response, variable slope) was calculated using GraphPad Prism to assess the half-inhibitory […]
Growth inhibition % = (1 − average(sample)− average(uRBC)) ∗ 100 […]
The DMSO samples were also used to assess growth of parasite in the presence of 0.25 and 2.5 mM GlcN (normalised by DMSO in 0 mM GlcN).
Egress, invasion & recovery assay. To measure egress, invasion and follow up recovery in the presence of different compounds, we adapted the method developed in6, using Hyp1-Nluc parasites7. These parasites episomally express the exported PEXEL protein Hyp1 (PF3D7_0113300) tagged with a NanoLuc luciferase (NLuc) and were selected with 2.5 nM WR99210 (Jacobus). Highly synchronised schizonts were obtained using ML10 (LifeArc) and sorbitol synchronisation, and Percoll-purified (the culture was gently layered over 67% Percoll (Cytiva) in RPMI, and centrifuged for 15 min at 1500 g and the schizont layer was collected and washed). […]

SMILES: Cc1cc(Cl)c(S(=O)(=O)N2CCCC2)cc1OCC(=O)NC1CCCCC1 [M-833]
- effect on merozoite invasion and ring differentiation (P. falciparum merozoites): invasion itself was slowed down but not reduced; also recorded: failed to differentiate into an amoeboid ring-stage parasite
- Growth inhibition, (1 - av / DMSO) x 100 (SLI-WT parasites; SLI-WT, M-833 conc 0.00152416 (unit not given)): 17.8235% and 9.909% and 33.7545%
- Growth inhibition, (1 - av / DMSO) x 100 (SLI-WT parasites; SLI-WT, M-833 conc 0.00457247 (unit not given)): 32.5193% and 13.2196% and 48.23%
- Growth inhibition, (1 - av / DMSO) x 100 (SLI-WT parasites; SLI-WT, M-833 conc 0.0137174 (unit not given)): 64.9814% and 33.9327% and 65.9574%
- Growth inhibition, (1 - av / DMSO) x 100 (SLI-WT parasites; SLI-WT, M-833 conc 0.0411523 (unit not given)): 82.6478% and 70.7748% and 84.2144%
- Growth inhibition, (1 - av / DMSO) x 100 (SLI-WT parasites; SLI-WT, M-833 conc 0.123457 (unit not given)): 87.5893% and 87.6138% and 93.5055%
- Growth inhibition, (1 - av / DMSO) x 100 (SLI-WT parasites; SLI-WT, M-833 conc 0.37037 (unit not given)): 88.1748% and 91.0017% and 95.8283%
- Growth inhibition, (1 - av / DMSO) x 100 (SLI-WT parasites; SLI-WT, M-833 conc 1.11111 (unit not given)): 89.8172% and 92.0512% and 95.1872%
- Growth inhibition, (1 - av / DMSO) x 100 (SLI-WT parasites; SLI-WT, M-833 conc 3.33333 (unit not given)): 91.3453% and 92.3754% and 94.862%
- Growth inhibition, (1 - av / DMSO) x 100 (SLI-WT parasites; SLI-WT, M-833 conc 10 (unit not given)): 91.9594% and 91.8274% and 95.2708%
- sample/DMSO (SLI-WT parasites; M-833 0.000508053 uM, 0 mM GlcN, biological replicates 1-3): 27.927 and 21.9727 and 25
- sample/DMSO (SLI-WT parasites; M-833 0.000508053 uM, 0.25 mM GlcN, biological replicates 1-3): 42.2036 and 30.1606 and 32.1527
- sample/DMSO (SLI-WT parasites; M-833 0.000508053 uM, 2.5 mM GlcN, biological replicates 1-3): 50.9566 and 35.9886 and 36.6839
- sample/DMSO (SLI-WT parasites; M-833 0.00152416 uM, 0 mM GlcN, biological replicates 1-4): 49.0407 and 28.0532 and 35.8147 and 28.6219
- sample/DMSO (SLI-WT parasites; M-833 0.00152416 uM, 0.25 mM GlcN, biological replicates 1-4): 60.3487 and 47.5652 and 43.8309
- sample/DMSO (SLI-WT parasites; M-833 0.00152416 uM, 2.5 mM GlcN, biological replicates 1-4): 64.731 and 51.7963 and 44.8107 and 40.64
- sample/DMSO (SLI-WT parasites; M-833 0.00457247 uM, 0 mM GlcN, biological replicates 1-4): 71.0997 and 42.5489 and 51.2149 and 44.2813
- sample/DMSO (SLI-WT parasites; M-833 0.00457247 uM, 0.25 mM GlcN, biological replicates 1-4): 74.8396 and 65.6157 and 57.2049
- sample/DMSO (SLI-WT parasites; M-833 0.00457247 uM, 2.5 mM GlcN, biological replicates 1-4): 78.1904 and 72.0515 and 57.0638 and 53.24
- sample/DMSO (SLI-WT parasites; M-833 0.0137174 uM, 0 mM GlcN, biological replicates 1-4): 83.6593 and 61.2338 and 74.7499 and 69.6413
- sample/DMSO (SLI-WT parasites; M-833 0.0137174 uM, 0.25 mM GlcN, biological replicates 1-4): 88.8842 and 81.3121 and 70.4954
- sample/DMSO (SLI-WT parasites; M-833 0.0137174 uM, 2.5 mM GlcN, biological replicates 1-4): 87.5985 and 84.0064 and 69.7195 and 63.44
- sample/DMSO (SLI-WT parasites; M-833 0.0411523 uM, 0 mM GlcN, biological replicates 1-4): 94.394 and 79.7192 and 91.2101 and 80.3728
- sample/DMSO (SLI-WT parasites; M-833 0.0411523 uM, 0.25 mM GlcN, biological replicates 1-4): 94.2399 and 92.19 and 82.349
- sample/DMSO (SLI-WT parasites; M-833 0.0411523 uM, 2.5 mM GlcN, biological replicates 1-4): 91.9649 and 89.5193 and 74.7012 and 67.08
- sample/DMSO (SLI-WT parasites; M-833 0.123457 uM, 0 mM GlcN, biological replicates 1-4): 97.6883 and 88.7403 and 94.7713 and 86.5433
- sample/DMSO (SLI-WT parasites; M-833 0.123457 uM, 0.25 mM GlcN, biological replicates 1-4): 95.7043 and 95.071 and 88.6476
- sample/DMSO (SLI-WT parasites; M-833 0.123457 uM, 2.5 mM GlcN, biological replicates 1-4): 92.7752 and 92.3191 and 78.8024 and 71.4
- EC50 (SLI-WT parasites; 72 h, Fig 2B, SLI-WT, 72 h, n = 3, unit only in x-axis title, read-out: EC50 (95% confidence interval)): 13.4 nM
- EC50 (SLI-WT parasites; Fig 3C, SLI-WT, 0 mM GlcN, n = 4, unit on plot axis, read-out: EC50 M-833 (95% confidence interval)): 5.9 nM
- EC50 (SLI-WT parasites; Fig 3C, SLI-WT, 0.25 mM GlcN, n = 4, unit on plot axis, read-out: EC50 M-833 (95% confidence interval)): 3.1 nM
- EC50 (SLI-WT parasites; Fig 3C, SLI-WT, 2.5 mM GlcN, n = 4, unit on plot axis, read-out: EC50 M-833 (95% confidence interval)): 2.6 nM
- fold more sensitive compared to the parental 3D7 parasites (SLI-WT parasites; SLI-WT, Fig 2B): 7 fold
- fold reduction of EC50 on addition of 2.5 mM GlcN (SLI-WT parasites; SLI-WT, PfSTART1 knock-down): 2.3 fold
- percent growth inhibition relative to DMSO control (SLI-WT parasites; 0 mM GlcN, M-833 0.37037 uM, biological replicates 1-4): 99.0454 and 90.3879 and 95.7242 and 88.5343
- percent growth inhibition relative to DMSO control (SLI-WT parasites; 0 mM GlcN, M-833 1.11111 uM, biological replicates 1-4): 99.2981 and 91.8212 and 96.4269 and 89.5933
- percent growth inhibition relative to DMSO control (SLI-WT parasites; 0 mM GlcN, M-833 3.33333 uM, biological replicates 1-4): 98.5962 and 92.1167 and 96.403 and 89.8334
- percent growth inhibition relative to DMSO control (SLI-WT parasites; 0 mM GlcN, M-833 10 uM, biological replicates 1-4): 99.0547 and 92.0133 and 96.7127 and 88.7461
- percent growth inhibition relative to DMSO control (SLI-WT parasites; 0.25 mM GlcN, M-833 0.37037 uM, biological replicates 1-4): 96.4435 and 95.9038 and 89.675
- percent growth inhibition relative to DMSO control (SLI-WT parasites; 0.25 mM GlcN, M-833 1.11111 uM, biological replicates 1-4): 96.5272 and 97.1616 and 91.872
- percent growth inhibition relative to DMSO control (SLI-WT parasites; 0.25 mM GlcN, M-833 3.33333 uM, biological replicates 1-4): 96.834 and 96.2182 and 91.3374
- percent growth inhibition relative to DMSO control (SLI-WT parasites; 0.25 mM GlcN, M-833 10 uM, biological replicates 1-4): 97.0851 and 96.6856 and 92.1644
- percent growth inhibition relative to DMSO control (SLI-WT parasites; 2.5 mM GlcN, M-833 0.37037 uM, biological replicates 1-4): 94.0131 and 93.8677 and 81.9097 and 71.68
- percent growth inhibition relative to DMSO control (SLI-WT parasites; 2.5 mM GlcN, M-833 1.11111 uM, biological replicates 1-4): 94.8008 and 94.5862 and 84.2496 and 73.4
- percent growth inhibition relative to DMSO control (SLI-WT parasites; 2.5 mM GlcN, M-833 3.33333 uM, biological replicates 1-4): 94.7333 and 94.0783 and 84.1867 and 73.32
- percent growth inhibition relative to DMSO control (SLI-WT parasites; 2.5 mM GlcN, M-833 10 uM, biological replicates 1-4): 95.2735 and 94.4252 and 87.0927 and 74.36
